The text below walks through data of patent US20150023953A1, “METHOD OF TREATING CANCER” (priority 2012, published 2015).

For one data set, the target named is T1, ABCG2 (BCRP) (Homo sapiens, UniProt Q9UNQ0).
T1 sequence (Q9UNQ0 1-655): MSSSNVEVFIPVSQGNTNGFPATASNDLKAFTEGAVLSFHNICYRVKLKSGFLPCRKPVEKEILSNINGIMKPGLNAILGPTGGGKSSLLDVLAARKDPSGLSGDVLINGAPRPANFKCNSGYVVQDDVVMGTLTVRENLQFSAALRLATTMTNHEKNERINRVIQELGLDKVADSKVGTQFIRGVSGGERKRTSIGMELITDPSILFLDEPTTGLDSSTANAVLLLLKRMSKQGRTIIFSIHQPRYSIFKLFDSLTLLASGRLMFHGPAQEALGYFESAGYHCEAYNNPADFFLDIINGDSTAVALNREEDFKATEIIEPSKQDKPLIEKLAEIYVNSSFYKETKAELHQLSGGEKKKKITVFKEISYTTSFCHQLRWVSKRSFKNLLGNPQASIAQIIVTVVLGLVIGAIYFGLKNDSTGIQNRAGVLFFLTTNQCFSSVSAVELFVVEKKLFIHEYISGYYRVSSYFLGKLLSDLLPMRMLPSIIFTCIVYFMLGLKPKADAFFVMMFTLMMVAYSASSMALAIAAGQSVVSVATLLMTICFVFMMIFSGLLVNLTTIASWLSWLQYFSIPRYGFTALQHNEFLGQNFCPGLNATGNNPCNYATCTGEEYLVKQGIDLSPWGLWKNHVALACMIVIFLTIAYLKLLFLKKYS
The following applies: cited from earlier work.

The subject of data set [1] is HER2+ MBC patients with recurrent brain metastases. The experiment in a line: Clinical Trial I: pharmacogenetic association of germline SNPs with PFS/OS during lapatinib monotherapy. In kind it is in vivo, human. The text has this:
Candidate genes for this experiment are listed below.
Cox proportional hazards model with Firth method.
(GWAS, 1M Genome-Wide SNPs (Illumina human 1M duo)). […] Examined genes were divided into three tiers as follows: […]

The subject of data set [2] is HER2+ MBC patients with disease progression following trastuzumab. The following applies: Trial II.
Procedure: Fifty five single nucleotide polymorphisms (SNPs) with functional consequence in 24 candidate genes were evaluated. The assay platform used to genotype these SNPs was the Illumina Human 1M-Duo BeadChip.
Statistical analysis of genetic associations were evaluated using an additive test. For any significant marker identified from the additive test, specific contrasts of interest between different genotypes will be explored to determine risk genotype(s). Cox proportional hazards model with Firth method. Any covariate significant at p≦0.05 in the multivariate Cox model will be included.
Testing for associations of SNPs with progression free survival (PFS) and overall survival (OS) during lapatinib treatment was performed using Cox proportional hazards methods, with covariate adjustment.
Associations were evaluated using an additive genetic test, using a multivariate Cox proportional hazards model adjusting for significant clinical covariates and race/ethnicity difference. […] The primary endpoints was Progression Free Survival (PFS), where the secondary endpoint was Overall Survival (OS). […] Variants were assigned to tiers for analysis, with different association significance thresholds and these were specified prior to analysis to adjust for number of SNP tests, but not for number of endpoints and groups, as follows: • Candidate genes:
A further data set has as its target CYP3A4 (Homo sapiens, UniProt P08684). The following applies: cited from earlier work.
The target in the next data set is ABCB1 (P-GP) (Homo sapiens, UniProt P08183). Conditions: cited from earlier work.
In a further data set the test system is HER2+ MBC patients. The experiment in a line: Meta-analysis and GWAS across Trial I and Trial II study-treatment arms. Conditions: across the trials or study arms. The format is in vivo, human. The source says:
(GWAS, 1M Genome-Wide SNPs (Illumina human 1M duo)). […] Examined genes were divided into three tiers as follows:
• GWAS SNPs: Bonferroni threshold for significance p=0.05/1M=5×10-8

CYP3A4, sequence (P08684 whole entry): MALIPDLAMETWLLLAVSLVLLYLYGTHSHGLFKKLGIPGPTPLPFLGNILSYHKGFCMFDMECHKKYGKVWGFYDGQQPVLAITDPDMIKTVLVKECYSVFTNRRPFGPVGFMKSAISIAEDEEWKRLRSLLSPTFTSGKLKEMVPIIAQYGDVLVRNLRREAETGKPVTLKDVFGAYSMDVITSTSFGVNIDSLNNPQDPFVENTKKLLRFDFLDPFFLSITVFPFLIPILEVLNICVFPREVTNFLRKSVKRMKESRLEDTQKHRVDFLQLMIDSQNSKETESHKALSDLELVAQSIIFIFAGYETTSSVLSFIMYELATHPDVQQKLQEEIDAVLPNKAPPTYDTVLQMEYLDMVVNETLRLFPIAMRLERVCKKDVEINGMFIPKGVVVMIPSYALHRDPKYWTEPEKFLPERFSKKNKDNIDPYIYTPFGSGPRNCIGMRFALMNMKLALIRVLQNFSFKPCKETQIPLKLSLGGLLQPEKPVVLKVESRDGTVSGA
ABCB1 (P-GP), sequence (P08183 whole entry): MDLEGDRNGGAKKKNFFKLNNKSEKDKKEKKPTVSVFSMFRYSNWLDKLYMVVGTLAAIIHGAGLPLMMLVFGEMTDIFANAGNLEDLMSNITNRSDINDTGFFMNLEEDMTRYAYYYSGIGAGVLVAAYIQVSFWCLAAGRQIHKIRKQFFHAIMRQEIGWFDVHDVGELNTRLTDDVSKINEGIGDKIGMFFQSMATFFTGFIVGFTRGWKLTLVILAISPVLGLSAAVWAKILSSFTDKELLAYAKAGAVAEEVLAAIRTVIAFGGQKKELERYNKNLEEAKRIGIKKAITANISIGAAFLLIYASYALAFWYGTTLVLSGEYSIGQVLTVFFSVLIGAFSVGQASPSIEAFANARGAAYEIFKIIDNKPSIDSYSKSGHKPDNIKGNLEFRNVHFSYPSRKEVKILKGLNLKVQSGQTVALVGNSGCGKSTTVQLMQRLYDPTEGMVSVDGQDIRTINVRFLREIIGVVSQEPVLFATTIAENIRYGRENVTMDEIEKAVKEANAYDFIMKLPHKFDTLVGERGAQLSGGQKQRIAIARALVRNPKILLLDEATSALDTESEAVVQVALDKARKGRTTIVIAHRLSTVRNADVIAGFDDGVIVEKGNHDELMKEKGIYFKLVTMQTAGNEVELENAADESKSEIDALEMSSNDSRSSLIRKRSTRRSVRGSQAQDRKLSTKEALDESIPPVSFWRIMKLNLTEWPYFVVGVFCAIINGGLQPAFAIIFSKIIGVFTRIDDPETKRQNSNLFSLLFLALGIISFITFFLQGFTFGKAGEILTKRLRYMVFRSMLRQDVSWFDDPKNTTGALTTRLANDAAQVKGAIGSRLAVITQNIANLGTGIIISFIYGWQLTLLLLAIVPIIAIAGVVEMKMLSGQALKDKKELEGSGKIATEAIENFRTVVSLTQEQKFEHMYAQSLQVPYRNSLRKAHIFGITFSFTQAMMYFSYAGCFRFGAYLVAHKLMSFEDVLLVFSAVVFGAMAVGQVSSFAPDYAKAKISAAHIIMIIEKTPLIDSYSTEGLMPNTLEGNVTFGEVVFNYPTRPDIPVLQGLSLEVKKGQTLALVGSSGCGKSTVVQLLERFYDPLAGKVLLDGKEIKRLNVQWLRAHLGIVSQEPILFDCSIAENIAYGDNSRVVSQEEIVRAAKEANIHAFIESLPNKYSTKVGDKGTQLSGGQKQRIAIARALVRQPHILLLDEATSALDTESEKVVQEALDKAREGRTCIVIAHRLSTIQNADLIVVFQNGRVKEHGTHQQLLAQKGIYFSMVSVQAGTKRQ

Consider `CS(=O)(=O)CCNCc1ccc(-c2ccc3ncnc(Nc4ccc(OCc5cccc(F)c5)c(Cl)c4)c3c2)o1` [lapatinib, N-(3-chloro-4-{[(3-fluorophenyl)methyl]oxy}phenyl)-6-[5-({[2-(methylsulfonyl)ethyl]amino}methyl)-2-furanyl]-4-quinazolinamine], for which the substrate status entry at ABCG2 (BCRP) was “(BCRP) lapatinib is substrate”; on CYP3A4 it was “substrate”; at ABCB1 (P-GP) it was “(P-GP) lapatinib is substrate”. The “association of VEGFR2 rs1870377 18487A>T with OS” value in data set [1] is “not seen”. The “association of SNPs with progression-free survival (PFS)” value in data set [1] (55 SNPs in 24 candidate genes) and in data set [2] (55 SNPs in 24 candidate genes) was “No SNPs were statistically significantly associated” throughout. Besides, in data set [1] (lapatinib monotherapy, improved OS for T allele carriers, range in brackets), the “allelic hazard ratio for overall survival (OS), VEGFA rs3025039 936C>T” value is reported as 0.21 (0.08-0.52). In addition, in data set [2], the “association of VEGFA rs3025039 936C>T with OS” value is listed as “not seen”. In addition, the “allelic hazard ratio for OS, VEGFR2 rs1870377 18487A>T Q472H” value in data set [2] (T allele carriers showing improved OS, range in brackets) was 0.47 (0.3-0.73). Also, the “allelic hazard ratio for OS, carriage of either IGFR1 minor allele (rs2037448 or rs7181022) vs wild type” value in data set [2] (carriers have poorer OS, range in brackets) is listed as 5.0 (2.2-10.0). Moreover, on CYP3A4, the inhibitor status result was “inhibitor”. The “GWAS signals (p<5×10-8) with common markers (MAF>5%)” value in the data set with HER2+ MBC patients is “no strong signals”.
